# Like-named read-outs stand apart in the source and are kept apart here.
# Experiments:
# [1] = test system: Salmonella enteritidis 1891; assay: MIC, serial dilution on nutrient agar; format: cell-based; conditions: Salmonella enterica
# [2] = test system: Pseudomonas aeruginosa B-13; assay: MIC, serial dilution on nutrient agar; format: cell-based
# [3] = test system: Pseudomonas aeruginosa GN315; assay: MIC, serial dilution on nutrient agar; format: cell-based; conditions: 37° C., 18 hours
# Experimental: (§1) The minimum inhibitory concentrations (mcg/ml) of 6"-deoxydibekacin (abbreviated as 6"-DDKB), 4",6"-dideoxydibekacin (abbreviated as 4",6"-DDKB), 1-N-(L-4-amino-2-hydroxybutyryl)-6"-deoxydibekacin (abbreviated as AHB-6"-DDKB) and 1-N-(L-4-amino-2-hydroxybutyryl)-4",6"-dideoxydibekacin (abbreviated as AHB-4",6"-DDKB) of this invention against various microorganisms were determined according to serial dilution method on a nutrient agar medium at 37° C., the estimation being made after 18 hours incubation. For comparison purpose, the minimum inhibitory concentrations of dibekacin (abbreviated as DKB) were also determined in the same manner as stated above.
# [4] = test system: Escherichia coli K-12 C 600R/35; assay: MIC, serial dilution on nutrient agar; format: cell-based; conditions: K12C600R/35, 37° C., 18 hours
# Experimental: as §1
# [5] = test system: Shigella sonnei JS11746; assay: MIC, serial dilution on nutrient agar; format: cell-based; conditions: 37° C., 18 hours
# Experimental: as §1
# [6] = test system: Serratia SOU; assay: MIC, serial dilution on nutrient agar; format: cell-based; conditions: 37° C., 18 hours
# Experimental: as §1
# [7] = test system: Escherichia coli K-12 J5B 11-2; assay: MIC, serial dilution on nutrient agar; format: cell-based; conditions: K12J5B112, 37° C., 18 hours
# Experimental: as §1
# [8] = test system: Shigella flexneri 4b JS11811; assay: MIC, serial dilution on nutrient agar; format: cell-based; conditions: 4BJS11811, 37° C., 18 hours
# Experimental: as §1
# [9] = test system: Serratia 4; assay: MIC, serial dilution on nutrient agar; format: cell-based; conditions: 37° C., 18 hours
# Experimental: as §1
# [10] = test system: Escherichia coli K-12 R 388; assay: MIC, serial dilution on nutrient agar; format: cell-based; conditions: K12R388, 18 h
# [11] = test system: Pseudomonas aeruginosa K-Ps102; assay: MIC, serial dilution on nutrient agar; format: cell-based
# [12] = test system: Corynebacterium bovis 1810; assay: MIC, serial dilution on nutrient agar; format: cell-based
# [13] = test system: Bacillus subtilis NRRL B-558; assay: MIC, serial dilution on nutrient agar; format: cell-based; conditions: NRRLB558, 37° C., 18 hours
# [14] = test system: Pseudomonas aeruginosa H11; assay: MIC, serial dilution on nutrient agar; format: cell-based
# [15] = test system: kanamycin-sensitive and resistant bacteria; assay: antibacterial activity compared to dibekacin; format: cell-based
# Experimental: as §1
# [16] = test system: Pseudomonas aeruginosa H9; assay: MIC, serial dilution on nutrient agar; format: cell-based
# [17] = test system: Bacillus cereus ATCC 10702; assay: MIC, serial dilution on nutrient agar; format: cell-based
# [18] = test system: Sarcina lutea PCI 1001; assay: MIC, serial dilution on nutrient agar; format: cell-based; conditions: Micrococcus luteus
# [19] = test system: Bacillus subtilis PCI 219; assay: MIC, serial dilution on nutrient agar; format: cell-based; conditions: PCI219, 37° C., 18 hours
# [20] = test system: Pseudomonas aeruginosa ROS134/PU21; assay: microbe, parasite or virus in culture; format: cell-based; conditions: ROS134/PU21, 18 h
# [21] = test system: kanamycin-sensitive bacteria and various kanamycin-resistant bacteria; conditions: prior art; cited from earlier work
# [22] = nutrient agar, 37° C., 18 hours, read-out: MIC
# [23] = KPS102, nutrient agar, 37° C., 18 hours, read-out: MIC
# [24] = Corynebacterium bovis, 1810, 18 h
# [25] = ATCC10702, nutrient agar, 37° C., 18 hours, read-out: MIC
# [26] = Corynebacterium bovis, 1810, nutrient agar, 37° C., 18 hours, read-out: MIC
# [27] = H11, nutrient agar, 37° C., 18 hours, read-out: MIC
# [28] = PCI1001, nutrient agar, 37° C., 18 hours, read-out: MIC
# [29] = B13, nutrient agar, 37° C., 18 hours, read-out: MIC
Structure (SMILES),"MIC [1, 22]","MIC ([2]; B13, 18 h)",MIC [3],MIC [4],MIC [5],MIC [6],MIC [7],MIC [8],MIC [9],MIC [10],"MIC [11, 23]","MIC [12, 24]",MIC [13],"MIC ([14]; H11, 18 h)","MIC ([16]; H9, 18 h)","MIC [17, 25]","MIC ([18]; PCI1001, 18 h)",MIC [19],MIC [20],MIC ([1]; 18 h),other results
"C[C@@H]1C[C@H](N)[C@@H](O)[C@@H](O[C@@H]2[C@@H](O)[C@H](O[C@H]3O[C@H](CN)CC[C@H]3N)[C@@H](N)C[C@H]2N)O1 [4"",6""-DDKB, 4"",6""-dideoxydibekacin]",6.25 µg/mL,> 100 µg/mL,> 100 µg/mL,50 µg/mL,3.13 µg/mL,> 100 µg/mL,3.13 µg/mL,3.13 µg/mL,100 µg/mL,1.56 µg/mL,25 µg/mL,50 µg/mL,< 0.2 µg/mL,100 µg/mL,100 µg/mL,6.25 µg/mL,50 µg/mL,< 0.2 µg/mL,> 100 µg/mL,–,antibacterial activity compared to dibekacin (DKB) [15]: same or more active
"C[C@H]1O[C@H](O[C@@H]2[C@@H](O)[C@H](O[C@H]3O[C@H](CN)CC[C@H]3N)[C@@H](N)C[C@H]2N)[C@H](O)[C@@H](N)[C@@H]1O [6""-DDKB, 6""-deoxydibekacin]",–,50 µg/mL,100 µg/mL,3.13 µg/mL,3.13 µg/mL,> 100 µg/mL,1.56 µg/mL,3.13 µg/mL,100 µg/mL,1.56 µg/mL,6.25 µg/mL,–,< 0.2 µg/mL,–,–,6.25 µg/mL,–,< 0.2 µg/mL,> 100 µg/mL,3.13 µg/mL,"MIC [12, 26]: 25 µg/mL; MIC [14, 27]: 12.5 µg/mL; antibacterial activity compared to dibekacin (DKB) [15]: same or more active; MIC ([16]; H9, nutrient agar, 37° C., 18 hours, read-out: MIC): 12.5 µg/mL; MIC [18, 28]: 25 µg/mL"
"C[C@@H]1C[C@H](N)[C@@H](O)[C@@H](O[C@@H]2[C@@H](O)[C@H](O[C@H]3O[C@H](CN)CC[C@H]3N)[C@@H](N)C[C@H]2NC(=O)[C@@H](O)CCN)O1 [AHB-4"",6""-DDKB, 1-N-(L-4-amino-2-hydroxybutyryl)-4"",6""-dideoxydibekacin]",–,–,100 µg/mL,0.78 µg/mL,3.13 µg/mL,> 100 µg/mL,1.56 µg/mL,6.25 µg/mL,6.25 µg/mL,0.78 µg/mL,12.5 µg/mL,6.25 µg/mL,< 0.2 µg/mL,50 µg/mL,6.25 µg/mL,–,3.13 µg/mL,< 0.2 µg/mL,> 100 µg/mL,6.25 µg/mL,"MIC [2, 29]: 12.5 µg/mL; MIC ([17]; ATCC10702, 18 h): 1.56 µg/mL"
"C[C@H]1O[C@H](O[C@@H]2[C@@H](O)[C@H](O[C@H]3O[C@H](CN)CC[C@H]3N)[C@@H](N)C[C@H]2NC(=O)[C@@H](O)CCN)[C@H](O)[C@@H](N)[C@@H]1O [AHB-6""-DDKB, 1-N-(L-4-amino-2-hydroxybutyryl)-6""-deoxydibekacin]",3.13 µg/mL,–,50 µg/mL,1.56 µg/mL,6.25 µg/mL,100 µg/mL,1.56 µg/mL,6.25 µg/mL,6.25 µg/mL,0.78 µg/mL,12.5 µg/mL,–,< 0.2 µg/mL,50 µg/mL,6.25 µg/mL,3.13 µg/mL,–,< 0.2 µg/mL,> 100 µg/mL,–,"MIC [2, 29]: 25 µg/mL; MIC [12, 26]: 3.13 µg/mL; MIC [18, 28]: 3.13 µg/mL"
"NC[C@@H]1CC[C@@H](N)[C@@H](O[C@H]2[C@H](O)[C@@H](O[C@H]3O[C@H](CO)[C@@H](O)[C@H](N)[C@H]3O)[C@H](N)C[C@@H]2N)O1 [DKB, 3',4'-dideoxykanamycin B, reference compound]",–,6.25 µg/mL,> 100 µg/mL,1.56 µg/mL,6.25 µg/mL,> 100 µg/mL,3.13 µg/mL,3.13 µg/mL,100 µg/mL,1.56 µg/mL,–,50 µg/mL,< 0.2 µg/mL,–,6.25 µg/mL,–,100 µg/mL,< 0.2 µg/mL,> 100 µg/mL,3.13 µg/mL,"MIC ([11]; KPS102, 18 h): 6.25 µg/mL; MIC [14, 27]: 12.5 µg/mL; antibacterial activity [21]: active against the kanamycin-sensitive bacteria and also against various kanamycin-resistant bacteria; MIC ([17]; ATCC10702, 18 h): 3.13 µg/mL"

# From patent US4332794A, “6"-Deoxydibekacin, 4",6"-dideoxydibekacin and 1-N-aminoacyl derivatives thereof, and the production of these new compounds” (Zaidan Hojin Biseibutsu Kagaku Kenkyu Kai, priority 1979, dated 1982)
